In ChEMBL document CHEMBL1128010, “Novel HO-DPAT (hydroxy-2-dipropylaminotetralin) isomers: Stereoselective synthesis and receptor binding studies” (Bioorg Med Chem Lett, 1994):

Legend:
Format in all cases: cell membranes, Striatum, Membrane
D(2) dopamine receptor [1] = biological target: T1, D(2) dopamine receptor (Rattus norvegicus, UniProt P61169); assay: Compound was evaluated for its affinity to Dopamine receptor D2 labelled with [3H]pramipexole in rat striatal membranes
D(1A) dopamine receptor = D(1A) dopamine receptor (Rattus norvegicus, UniProt P18901); assay: Compound was evaluated for its affinity to Dopamine receptor D1 labelled with [3H]-SCH- 23390 in rat striatal membranes
D(1A) dopamine receptor, sequence (P18901 whole entry): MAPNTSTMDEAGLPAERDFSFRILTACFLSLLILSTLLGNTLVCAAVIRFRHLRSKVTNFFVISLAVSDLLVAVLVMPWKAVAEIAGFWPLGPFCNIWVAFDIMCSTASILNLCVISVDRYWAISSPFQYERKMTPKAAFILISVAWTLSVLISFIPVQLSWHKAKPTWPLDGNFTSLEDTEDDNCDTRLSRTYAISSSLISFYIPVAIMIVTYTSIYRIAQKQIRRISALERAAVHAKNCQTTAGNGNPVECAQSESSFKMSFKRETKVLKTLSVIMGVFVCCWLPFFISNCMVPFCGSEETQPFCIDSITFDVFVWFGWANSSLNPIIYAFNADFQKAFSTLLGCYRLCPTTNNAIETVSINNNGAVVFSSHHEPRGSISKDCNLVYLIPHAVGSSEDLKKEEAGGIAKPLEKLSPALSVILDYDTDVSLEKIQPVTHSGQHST

D(2) dopamine receptor [2] = biological target: T1, D(2) dopamine receptor; assay: Compound was evaluated for its affinity to Dopamine receptor D2 labelled with [3H]spiroperidol in rat striatal membranes

T1 sequence (P61169 whole entry): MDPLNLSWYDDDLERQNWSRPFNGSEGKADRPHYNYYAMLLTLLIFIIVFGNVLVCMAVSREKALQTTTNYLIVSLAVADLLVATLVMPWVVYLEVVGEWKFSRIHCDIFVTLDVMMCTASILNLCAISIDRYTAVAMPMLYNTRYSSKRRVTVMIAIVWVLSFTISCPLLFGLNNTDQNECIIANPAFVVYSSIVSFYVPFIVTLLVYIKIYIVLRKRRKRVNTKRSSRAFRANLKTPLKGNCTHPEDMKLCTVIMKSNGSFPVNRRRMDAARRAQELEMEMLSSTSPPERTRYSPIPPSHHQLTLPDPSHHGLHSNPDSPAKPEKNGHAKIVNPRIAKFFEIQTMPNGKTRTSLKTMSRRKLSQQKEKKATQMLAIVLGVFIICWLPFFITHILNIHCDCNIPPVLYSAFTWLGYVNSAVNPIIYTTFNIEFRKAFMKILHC

Row | Compound | Ki (D(2) dopamine receptor [1]) [µM] | Ki (D(1A) dopamine receptor) [µM] | Ki (D(2) dopamine receptor [2]) [µM]
1 | CCCN(CCC)C1Cc2ccccc2[C@H](O)C1 (stereo partly specified) | 0.0357 | > 50 | 13.9
2 | CCCN(CCC)C1Cc2ccccc2[C@@H](O)C1 (stereo partly specified) | 0.262 | > 50 | 13
